{"source": "paper PMC9694544", "about": "“Conteltinib (CT-707) in patients with advanced ALK-positive non-small cell lung cancer: a multicenter, open-label, first-in-human phase 1 study” (BMC Medicine, 2022)", "key": {"[1]": {"target": "ALK F1174L (Homo sapiens, UniProt Q9UM73, F1174L)", "assay": "ALK enzymatic IC50, F1174L", "format": "biochemical", "from_the_text": "Supplement 12916_2022_2646_MOESM1_ESM.docx, table 1 | column: ALK Enzymatic IC50 (nM)"}, "[2]": {"assay": "clinical", "settings": "human, in vivo; for half-life: read-out: T1/2 (converted); for Tmax: read-out: Tmax", "procedure": "For single-dose PK parameters, plasma samples were taken at pre-dose and 0.5 h, 1 h, 2 h, 3 h, 4 h, 6 h, 8 h, 12 h, 24 h, 48 h, 72 h, 96 h, 120 h, 144 h, and 168 h post-dose in PK lead-in phase of dose-escalation phase, and plasma samples were also taken at pre-dose and 0.5 h, 1 h, 2 h, 3 h, 4 h, 6 h, 8 h, 12 h, and 24 h post-dose in cycle 1 day 1 of dose-expansion phase. During continuous dosing, serial plasma samples were collected at pre-dose in cycle 1 day 15, pre-dose in cycle 1 day 22, pre-dose and 0.5 h, 1 h, 2 h, 3 h, 4 h, 6 h, 8 h, 12 h, and 24 h post-dose in cycle 1 day 28 for all dose cohorts. The following PK parameters were assessed: area under the concentration-time curve from the time of dosing extrapolated to infinity, based on the last observed concentration (AUCINF_obs); area under the concentration-time curve from the time of dosing to the time of last observation (AUClast); maximum concentration (Cmax); time to maximum concentration (Tmax); elimination half-life (T1/2); and mean residence time from the time of dosing to the time of the last measurable concentration (MRTlast)."}, "[3]": {"settings": "100 mg, cycle 1 day 28 of dose-expansion phase, 100 mg (n=5), mean"}, "[4]": {"settings": "100 mg, single dose, cycle 1 day 1 of dose-expansion phase, 100 mg (n=5), mean"}, "[5]": {"settings": "450 mg, cycle 1 day 28 of dose-expansion phase, 450 mg (n=10), mean"}, "[6]": {"settings": "450 mg, single dose, cycle 1 day 1 of dose-expansion phase, 450 mg (n=10), mean"}, "[7]": {"settings": "600 mg, cycle 1 day 28 of dose-expansion phase, 600 mg (n=10), mean"}, "[8]": {"settings": "600 mg, single dose, cycle 1 day 1 of dose-expansion phase, 600 mg (n=10), mean"}, "[9]": {"settings": "cycle 1 day 28 of dose-escalation phase, 50 mg (n=2), mean"}, "[10]": {"settings": "cycle 1 day 28 of dose-escalation phase, 100 mg (n=3), mean"}, "[11]": {"settings": "cycle 1 day 28 of dose-escalation phase, 200 mg (n=3), mean"}, "[12]": {"settings": "cycle 1 day 28 of dose-escalation phase, 300 mg (n=3), mean"}, "[13]": {"settings": "cycle 1 day 28 of dose-escalation phase, 450 mg (n=3), mean"}}, "note": "Like-named read-outs stand apart in the source and are kept apart here.", "data": [{"smiles": "COc1cc(N2CCC(N3CCN(C)CC3)CC2)ccc1Nc1nc2c(c(Nc3ccccc3S(=O)(=O)NC(C)C)n1)CCN2", "note": "[Conteltinib]", "values": [{"measurement": "IC50", "setting": "[1]", "value": 4.3, "unit": "nM"}, {"measurement": "Cmax", "setting": "[2]; 100 mg, Cmax", "value": 123, "unit": "ng/mL"}, {"measurement": "AUC(0-t)", "setting": "[2]; [3]", "value": 1710, "unit": "ng·h/mL"}, {"measurement": "MRT last", "setting": "[2]; [3]", "value": 10.7, "unit": "h"}, {"measurement": "AUC(0-inf)", "setting": "[2]; 100 mg, cycle 1 day 28 of dose-expansion phase, 100 mg (n=5), mean, read-out: AUCINF_obs", "value": 6460, "unit": "ng·h/mL"}, {"measurement": "half-life", "setting": "[2]; [3]", "value": 53.2, "unit": "h"}, {"measurement": "Tmax", "setting": "[2]; [3]", "value": 2, "unit": "h"}, {"measurement": "AUC(0-t)", "setting": "[2]; [4]", "value": 737, "unit": "ng·h/mL"}, {"measurement": "MRT last", "setting": "[2]; [4]", "value": 8.9, "unit": "h"}, {"measurement": "AUC(0-inf)", "setting": "[2]; 100 mg, single dose, cycle 1 day 1 of dose-expansion phase, 100 mg (n=5), mean, read-out: AUCINF_obs", "value": 1310, "unit": "ng·h/mL"}, {"measurement": "Cmax", "setting": "[2]; 100 mg, single dose, cycle 1 day 1 of dose-expansion phase, 100 mg (n=5), mean, read-out: Cmax", "value": 85.5, "unit": "ng/mL"}, {"measurement": "half-life", "setting": "[2]; [4]", "value": 26.7, "unit": "h"}, {"measurement": "Tmax", "setting": "[2]; [4]", "value": 2.7, "unit": "h"}, {"measurement": "AUC(0-t)", "setting": "[2]; [5]", "value": 7040, "unit": "ng·h/mL"}, {"measurement": "MRT last", "setting": "[2]; [5]", "value": 10.5, "unit": "h"}, {"measurement": "AUC(0-inf)", "setting": "[2]; 450 mg, cycle 1 day 28 of dose-expansion phase, 450 mg (n=10), mean, read-out: AUCINF_obs", "value": 15700, "unit": "ng·h/mL"}, {"measurement": "Cmax", "setting": "[2]; 450 mg, cycle 1 day 28 of dose-expansion phase, 450 mg (n=10), mean, read-out: Cmax", "value": 491, "unit": "ng/mL"}, {"measurement": "half-life", "setting": "[2]; [5]", "value": 26.3, "unit": "h"}, {"measurement": "Tmax", "setting": "[2]; [5]", "value": 3, "unit": "h"}, {"measurement": "AUC(0-t)", "setting": "[2]; [6]", "value": 3060, "unit": "ng·h/mL"}, {"measurement": "MRT last", "setting": "[2]; [6]", "value": 9.3, "unit": "h"}, {"measurement": "AUC(0-inf)", "setting": "[2]; 450 mg, single dose, cycle 1 day 1 of dose-expansion phase, 450 mg (n=10), mean, read-out: AUCINF_obs", "value": 6340, "unit": "ng·h/mL"}, {"measurement": "Cmax", "setting": "[2]; 450 mg, single dose, cycle 1 day 1 of dose-expansion phase, 450 mg (n=10), mean, read-out: Cmax", "value": 328, "unit": "ng/mL"}, {"measurement": "Tmax", "setting": "[2]; [6]", "value": 2.3, "unit": "h"}, {"measurement": "AUC(0-inf)", "setting": "[2]; 600 mg, AUCINF_obs", "value": 7150, "unit": "ng·h/mL"}, {"measurement": "AUC(0-t)", "setting": "[2]; [7]", "value": 11900, "unit": "ng·h/mL"}, {"measurement": "AUC(0-inf)", "setting": "[2]; 600 mg, cycle 1 day 28 of dose-expansion phase, 600 mg (n=10), mean, read-out: AUCINF_obs", "value": 32500, "unit": "ng·h/mL"}, {"measurement": "Cmax", "setting": "[2]; 600 mg, cycle 1 day 28 of dose-expansion phase, 600 mg (n=10), mean, read-out: Cmax", "value": 772, "unit": "ng/mL"}, {"measurement": "half-life", "setting": "[2]; [7]", "value": 37.1, "unit": "h"}, {"measurement": "Tmax", "setting": "[2]; [7]", "value": 3.3, "unit": "h"}, {"measurement": "AUC(0-t)", "setting": "[2]; [8]", "value": 4610, "unit": "ng·h/mL"}, {"measurement": "MRT last", "setting": "[2]; [8]", "value": 9.8, "unit": "h"}, {"measurement": "Cmax", "setting": "[2]; 600 mg, single dose, cycle 1 day 1 of dose-expansion phase, 600 mg (n=10), mean, read-out: Cmax", "value": 472, "unit": "ng/mL"}, {"measurement": "half-life", "setting": "[2]; [8]", "value": 16.7, "unit": "h"}, {"measurement": "Tmax", "setting": "[2]; [8]", "value": 4.6, "unit": "h"}, {"measurement": "AUC(0-t)", "setting": "[2]; [9]", "value": 683, "unit": "ng·h/mL"}, {"measurement": "AUC(0-inf)", "setting": "[2]; cycle 1 day 28 of dose-escalation phase, 50 mg (n=2), mean, read-out: AUCINF_obs", "value": 16700, "unit": "ng·h/mL"}, {"measurement": "Cmax", "setting": "[2]; cycle 1 day 28 of dose-escalation phase, 50 mg (n=2), mean, read-out: Cmax", "value": 42.7, "unit": "ng/mL"}, {"measurement": "half-life", "setting": "[2]; [9]", "value": 352, "unit": "h"}, {"measurement": "Tmax", "setting": "[2]; [9]", "value": 1.5, "unit": "h"}, {"measurement": "AUC(0-t)", "setting": "[2]; [10]", "value": 1480, "unit": "ng·h/mL"}, {"measurement": "AUC(0-inf)", "setting": "[2]; cycle 1 day 28 of dose-escalation phase, 100 mg (n=3), mean, read-out: AUCINF_obs", "value": 6110, "unit": "ng·h/mL"}, {"measurement": "Cmax", "setting": "[2]; cycle 1 day 28 of dose-escalation phase, 100 mg (n=3), mean, read-out: Cmax", "value": 106, "unit": "ng/mL"}, {"measurement": "half-life", "setting": "[2]; [10]", "value": 61.1, "unit": "h"}, {"measurement": "Tmax", "setting": "[2]; [10]", "value": 2.7, "unit": "h"}, {"measurement": "AUC(0-t)", "setting": "[2]; [11]", "value": 3570, "unit": "ng·h/mL"}, {"measurement": "MRT last", "setting": "[2]; [11]", "value": 11.2, "unit": "h"}, {"measurement": "AUC(0-inf)", "setting": "[2]; cycle 1 day 28 of dose-escalation phase, 200 mg (n=3), mean, read-out: AUCINF_obs", "value": 12400, "unit": "ng·h/mL"}, {"measurement": "Cmax", "setting": "[2]; cycle 1 day 28 of dose-escalation phase, 200 mg (n=3), mean, read-out: Cmax", "value": 259, "unit": "ng/mL"}, {"measurement": "half-life", "setting": "[2]; [11]", "value": 42.2, "unit": "h"}, {"measurement": "Tmax", "setting": "[2]; [11]", "value": 3, "unit": "h"}, {"measurement": "AUC(0-t)", "setting": "[2]; [12]", "value": 4860, "unit": "ng·h/mL"}, {"measurement": "AUC(0-inf)", "setting": "[2]; cycle 1 day 28 of dose-escalation phase, 300 mg (n=3), mean, read-out: AUCINF_obs", "value": 19000, "unit": "ng·h/mL"}, {"measurement": "Cmax", "setting": "[2]; cycle 1 day 28 of dose-escalation phase, 300 mg (n=3), mean, read-out: Cmax", "value": 282, "unit": "ng/mL"}, {"measurement": "half-life", "setting": "[2]; [12]", "value": 50.9, "unit": "h"}, {"measurement": "Tmax", "setting": "[2]; [12]", "value": 3, "unit": "h"}, {"measurement": "AUC(0-t)", "setting": "[2]; [13]", "value": 8050, "unit": "ng·h/mL"}, {"measurement": "MRT last", "setting": "[2]; [13]", "value": 11.6, "unit": "h"}, {"measurement": "AUC(0-inf)", "setting": "[2]; cycle 1 day 28 of dose-escalation phase, 450 mg (n=3), mean, read-out: AUCINF_obs", "value": 34400, "unit": "ng·h/mL"}, {"measurement": "Cmax", "setting": "[2]; cycle 1 day 28 of dose-escalation phase, 450 mg (n=3), mean, read-out: Cmax", "value": 474, "unit": "ng/mL"}, {"measurement": "half-life", "setting": "[2]; [13]", "value": 48.6, "unit": "h"}]}]}
